Results reported in patent publication US9512086B2, “Compound for promoting apoptosis of cancer cells and a pharmaceutical composition containing the same and uses thereof” (National Chiao Tung University, priority 2014, dated 2016).

System: A549 cell line
Experiment: MTT cell viability, A549 cell line
Format: cell-based, human
Settings: Homo sapiens, A549 cell line, 24 hours, MTT
Protocol: The above cell lines were plated in 96-well plates at a density of 1×10^4 cells/well for 16 to 20 hours. […] After drug treatment, the cell lines were washed with phosphate-buffered saline (hereinafter referred to PBS), and were replaced with fresh complete RPMI-1640 medium for 2 days. Thereafter, the medium was replaced and the cells were incubated with 0.5 mg/ml of 3-(4,5-dimethylthiazol-2-yl)-2,5-diphenyltetrazolium bromide reagent (hereinafter referred to MTT, Sigma Chemical Co., St. Louis, Mo.) in complete RPMI-1640 medium for 4 hours. The viable cells converted MTT to formazan that generates a blue-purple color when dissolved in dimethyl sulfoxide (hereinafter referred to DMSO). The intensity of formazan was measured at 565 nm using a plate reader (VERSAmax, Molecular Dynamics, Sunnyvale, Calif.). The relative percentage of cell viability was calculated by dividing the absorbance of treated cells by that of the control in each experiment.
After drug treatment, the cells were washed with PBS and replaced with fresh complete RPMI-1640 medium for 2 days. Thereafter, the medium was replaced and the cells were incubated with 0.5 mg/mL of MTT reagent (Sigma Chemical Co., St. Louis, Mo.) in complete RPMI-1640 medium for 4 hours. The intensity of formazan was measured at 565 nm using a plate reader (VERSAmax, Molecular Dynamics, Sunnyvale, Calif.). The relative percentage of cell viability was calculated by dividing the absorbance of treated cells by that of the control in each experiment.

Structure (SMILES) | viability at 10 µM | viability at 20 µM | viability at 40 µM | viability at 60 µM | viability at 80 µM
CCCCCOC(=O)CCC(=O)N1CCN(CCCOc2cc3c(Nc4ccc(F)c(Cl)c4)ncnc3cc2OC)CC1 [Analogue-11, pentyl 4-(4-(3-(4-(3-chloro-4-fluorophenylamino)-7-methoxyquinazolin-6-yloxy)propyl)piperazin-1-yl)-4-oxobutanoate] | 87.1% | 81.2% | 63.6% | 30% | 18.2%
CCCCCCCCCCCOC(=O)CCC(=O)N1CCN(CCCOc2cc3c(Nc4ccc(F)c(Cl)c4)ncnc3cc2OC)CC1 [Analogue-17, undecyl 4-(4-(3-(4-(3-chloro-4-fluorophenylamino)-7-methoxyquinazolin-6-yloxy)propyl)piperazin-1-yl)-4-oxobutanoate] | 93.4% | 85.2% | 12% | 3.9% | 2.8%
COC(=O)CCCCCC(=O)N1CCN(CCCOc2cc3c(Nc4ccc(F)c(Cl)c4)ncnc3cc2OC)CC1 [Analogue-5, methyl 7-(4-(3-(4-(3-chloro-4-fluorophenylamino)-7-methoxyquinazolin-6-yloxy)propyl)piperazin-1-yl)-7-oxoheptanoate] | 95.2% | 91.7% | 90.1% | 83.4% | 82.4%
CCCCCCOC(=O)CCC(=O)N1CCN(CCCOc2cc3c(Nc4ccc(F)c(Cl)c4)ncnc3cc2OC)CC1 [Analogue-12, hexyl 4-(4-(3-(4-(3-chloro-4-fluorophenylamino)-7-methoxyquinazolin-6-yloxy)propyl)piperazin-1-yl)-4-oxobutanoate] | 89.3% | 85.1% | 74.2% | 63.6% | 42.9%
COC(=O)CCCCCCC(=O)N1CCN(CCCOc2cc3c(Nc4ccc(F)c(Cl)c4)ncnc3cc2OC)CC1 [Analogue-6, methyl 8-(4-(3-(4-(3-chloro-4-fluorophenylamino)-7-methoxyquinazolin-6-yloxy)propyl)piperazin-1-yl)-8-oxooctanoate] | 92% | 94.3% | 90.7% | 88.5% | 88.9%
CCCCCCCCCCOC(=O)CCC(=O)N1CCN(CCCOc2cc3c(Nc4ccc(F)c(Cl)c4)ncnc3cc2OC)CC1 [Analogue-16, decyl 4-(4-(3-(4-(3-chloro-4-fluorophenylamino)-7-methoxyquinazolin-6-yloxy)propyl)piperazin-1-yl)-4-oxobutanoate] | 95.7% | 88.2% | 15.5% | 3.9% | 2%
CCCCCCCCCCCCCCCOC(=O)CCC(=O)N1CCN(CCCOc2cc3c(Nc4ccc(F)c(Cl)c4)ncnc3cc2OC)CC1 [Analogue-21, pentadecyl 4-(4-(3-(4-(3-chloro-4-fluorophenylamino)-7-methoxyquinazolin-6-yloxy)propyl)piperazin-1-yl)-4-oxobutanoate] | 92% | 91.2% | 85.5% | 81.6% | 81.1%
CCCCCCCCOC(=O)CCC(=O)N1CCN(CCCOc2cc3c(Nc4ccc(F)c(Cl)c4)ncnc3cc2OC)CC1 [Analogue-14, octyl 4-(4-(3-(4-(3-chloro-4-fluorophenylamino)-7-methoxyquinazolin-6-yloxy)propyl)piperazin-1-yl)-4-oxobutanoate] | 87.3% | 80% | 48.7% | 26% | 21.7%
CCCCCCCCCCCCCCCCCCOC(=O)CCC(=O)N1CCN(CCCOc2cc3c(Nc4ccc(F)c(Cl)c4)ncnc3cc2OC)CC1 [Analogue-24, octadecyl 4-(4-(3-(4-(3-chloro-4-fluorophenylamino)-7-methoxyquinazolin-6-yloxy)propyl)piperazin-1-yl)-4-oxobutanoate] | 94.8% | 90.5% | 91% | 87.2% | 86.7%
COC(=O)CCCCC(=O)N1CCN(CCCOc2cc3c(Nc4ccc(F)c(Cl)c4)ncnc3cc2OC)CC1 [Analogue-4, methyl 6-(4-(3-(4-(3-chloro-4-fluorophenylamino)-7-methoxyquinazolin-6-yloxy)propyl)piperazin-1-yl)-6-oxohexanoate] | 94.6% | 90.4% | 84.3% | 83.3% | 79.4%
COC(=O)CCCCCCCC(=O)N1CCN(CCCOc2cc3c(Nc4ccc(F)c(Cl)c4)ncnc3cc2OC)CC1 [Analogue-7, methyl 9-(4-(3-(4-(3-chloro-4-fluorophenylamino)-7-methoxyquinazolin-6-yloxy)propyl)piperazin-1-yl)-9-oxononanoate] | 90.3% | 89.7% | 85.8% | 84.8% | 80.9%
CCCCCCCCCCCCCOC(=O)CCC(=O)N1CCN(CCCOc2cc3c(Nc4ccc(F)c(Cl)c4)ncnc3cc2OC)CC1 [Analogue-19, tridecyl 4-(4-(3-(4-(3-chloro-4-fluorophenylamino)-7-methoxyquinazolin-6-yloxy)propyl)piperazin-1-yl)-4-oxobutanoate] | 93.7% | 93.8% | 71.1% | 20.6% | 6.8%
CCCCCCCCCCCCCCCCCOC(=O)CCC(=O)N1CCN(CCCOc2cc3c(Nc4ccc(F)c(Cl)c4)ncnc3cc2OC)CC1 [Analogue-23, heptadecyl 4-(4-(3-(4-(3-chloro-4-fluorophenylamino)-7-methoxyquinazolin-6-yloxy)propyl)piperazin-1-yl)-4-oxobutanoate] | 95.7% | 97.2% | 85.2% | 84.1% | 83.2%
CCCCCCCCCCCCCCCCOC(=O)CCC(=O)N1CCN(CCCOc2cc3c(Nc4ccc(F)c(Cl)c4)ncnc3cc2OC)CC1 [Analogue-22, hexadecyl 4-(4-(3-(4-(3-chloro-4-fluorophenylamino)-7-methoxyquinazolin-6-yloxy)propyl)piperazin-1-yl)-4-oxobutanoate] | 97.7% | 91.7% | 82.6% | 80% | 74.3%
CCCOC(=O)CCC(=O)N1CCN(CCCOc2cc3c(Nc4ccc(F)c(Cl)c4)ncnc3cc2OC)CC1 [Analogue-9, propyl 4-(4-(3-(4-(3-chloro-4-fluorophenylamino)-7-methoxyquinazolin-6-yloxy)propyl)piperazin-1-yl)-4-oxobutanoate] | 95.1% | 87% | 80.9% | 70.4% | 23.4%
CCCCCCCCCCCCCCCCCCCCOC(=O)CCC(=O)N1CCN(CCCOc2cc3c(Nc4ccc(F)c(Cl)c4)ncnc3cc2OC)CC1 [Analogue-26, icosyl 4-(4-(3-(4-(3-chloro-4-fluorophenylamino)-7-methoxyquinazolin-6-yloxy)propyl)piperazin-1-yl)-4-oxobutanoate] | 94% | 90.8% | 87.1% | 86.9% | 85.2%
